These results are taken from ChEMBL document CHEMBL3400056, “Novel thiazolo[3,2-b]-1,2,4-triazoles derived from naproxen with analgesic/anti-inflammatory properties: Synthesis, biological evaluation and molecular modeling studies” (Bioorg Med Chem, 2015).

Series [1] relates to Mus musculus. In words: Acute toxicity in Swiss albino mouse assessed as weight loss at 50 to 100 mg/kg, po measured up to 14 days. Conditions: in vivo, 336 h. More on the design: dose 50-100 mg/kg, route oral. The series is classed as organism-based.
Series [2] concerns Mus musculus. In words: Antiinflammatory activity in Swiss albino mouse assessed as inhibition of carrageenan-induced paw edema at 100 mg/kg, po administered 1 hr prior to carrageenan challenge measured after 2 hrs relative to control. The series is classed as functional. More on the design: scale not given: the % may be the effect or the level left.
The nature of series [3]: Selectivity ratio of IC50 for ovine recombinant COX-1 to IC50 for human recombinant COX-2.
Series [4] deals with Mus musculus. In words: Acute toxicity in Swiss albino mouse assessed as mortality at 50 to 100 mg/kg, po measured after 6 hrs to 14 days. The series is classed as organism-based. More on the design: dose 50-100 mg/kg, route oral. As to conditions: in vivo.
Series [5] concerns Mus musculus. The series can be described thus: Analgesic activity in Swiss albino mouse assessed as time of licking paws at 50 mg/kg, po measured after 2 hrs by tail flick test relative to control. The series is classed as functional. A general note: Hot-plate and tail-flick tests time the reaction to a heat stimulus.
For series [6], the system named is Mus musculus. The series can be described thus: Antiinflammatory activity in Swiss albino mouse assessed as inhibition of carrageenan-induced paw edema at 50 mg/kg, po administered 1 hr prior to carrageenan challenge measured after 2 hrs relative to control. The series is classed as functional. More on the design: scale not given: the % may be the effect or the level left. On the technique in general: Carrageenan injected into the paw causes an acute inflammation.

The target in series [7] is T1, Prostaglandin G/H synthase 2 (Homo sapiens, UniProt P35354).
T1 sequence (P35354 whole entry): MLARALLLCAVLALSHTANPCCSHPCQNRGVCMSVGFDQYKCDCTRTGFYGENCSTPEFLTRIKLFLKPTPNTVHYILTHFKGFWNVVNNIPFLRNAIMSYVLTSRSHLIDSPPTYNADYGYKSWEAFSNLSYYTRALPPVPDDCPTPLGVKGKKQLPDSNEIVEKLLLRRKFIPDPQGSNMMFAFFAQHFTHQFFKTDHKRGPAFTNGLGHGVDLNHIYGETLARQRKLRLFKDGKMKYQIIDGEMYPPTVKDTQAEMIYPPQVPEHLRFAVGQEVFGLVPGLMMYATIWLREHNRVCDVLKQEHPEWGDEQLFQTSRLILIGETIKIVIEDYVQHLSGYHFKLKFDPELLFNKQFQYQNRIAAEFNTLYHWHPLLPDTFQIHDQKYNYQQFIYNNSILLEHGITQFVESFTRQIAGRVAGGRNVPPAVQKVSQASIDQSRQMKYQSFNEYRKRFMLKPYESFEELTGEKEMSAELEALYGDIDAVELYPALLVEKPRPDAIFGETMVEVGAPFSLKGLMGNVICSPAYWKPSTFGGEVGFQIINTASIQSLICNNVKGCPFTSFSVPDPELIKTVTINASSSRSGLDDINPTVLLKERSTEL
The series can be described thus: Inhibition of human recombinant COX-2 using […] as substrate incubated for 10 mins prior to arachidonic acid addition measured after 2 mins by EIA.

The target of series [8] is T2, Prostaglandin G/H synthase 1 (Ovis aries, UniProt P05979).
T2 sequence (P05979 whole entry): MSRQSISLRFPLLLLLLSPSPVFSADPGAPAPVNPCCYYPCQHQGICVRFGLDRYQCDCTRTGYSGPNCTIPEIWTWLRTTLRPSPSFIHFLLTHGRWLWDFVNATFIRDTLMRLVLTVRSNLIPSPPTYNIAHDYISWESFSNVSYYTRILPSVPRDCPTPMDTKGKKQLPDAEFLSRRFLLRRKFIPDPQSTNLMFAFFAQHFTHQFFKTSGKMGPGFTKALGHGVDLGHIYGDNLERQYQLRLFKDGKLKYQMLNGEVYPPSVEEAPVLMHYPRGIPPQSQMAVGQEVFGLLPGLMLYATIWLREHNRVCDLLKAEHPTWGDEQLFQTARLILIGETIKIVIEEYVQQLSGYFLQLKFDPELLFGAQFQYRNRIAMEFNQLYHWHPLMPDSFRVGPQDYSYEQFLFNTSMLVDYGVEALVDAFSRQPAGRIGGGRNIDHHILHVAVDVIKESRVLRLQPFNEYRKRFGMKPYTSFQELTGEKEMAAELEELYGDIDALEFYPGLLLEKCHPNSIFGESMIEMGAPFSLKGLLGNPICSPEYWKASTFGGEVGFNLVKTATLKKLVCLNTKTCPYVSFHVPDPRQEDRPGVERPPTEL
In words: Inhibition of ovine recombinant COX-1 using […] as substrate incubated for 10 mins prior to arachidonic acid addition measured after 2 mins by EIA.

Series [9] has as its system Mus musculus. The series can be described thus: Gastrointestinal toxicity in Swiss albino mouse assessed as ulcer index at 100 mg/kg, po measured after 2 hrs. The format is organism-based. More on the design: dose 100 mg/kg, route oral. As to conditions: in vivo.
Series [10] relates to Mus musculus. The series can be described thus: Analgesic activity in Swiss albino mouse assessed as latancy of withdrawing tail at 100 mg/kg, po measured after 2 hrs by tail flick test relative to control. The format is functional.
For series [11], the system named is Mus musculus. The series can be described thus: Analgesic activity in Swiss albino mouse assessed as latancy of withdrawing tail at 50 mg/kg, po measured after 2 hrs by tail flick test relative to control. The format is functional.
In series [12] the test system is Mus musculus. The series can be described thus: Analgesic activity in Swiss albino mouse assessed as time of licking paws at 100 mg/kg, po measured after 2 hrs by tail flick test relative to control. The format is functional.
For series [13], the system named is Mus musculus. The series can be described thus: Gastrointestinal toxicity in Swiss albino mouse assessed as ulcer index at 50 mg/kg, po measured after 2 hrs. The format is organism-based. More on the design: dose 50 mg/kg, route oral. Conditions: in vivo.
Series [14] deals with Mus musculus. In words: Acute toxicity in Swiss albino mouse assessed as behavioral changes at 50 to 100 mg/kg, po measured up to 14 days. The format is organism-based. More on the design: dose 50-100 mg/kg, route oral. Conditions: in vivo, 336 h.
Series [15] in a line: Acute toxicity in Swiss albino mouse assessed as mortality at 50 mg/kg, po after 12 hrs. The series is classed as organism-based. More on the design: dose 50 mg/kg, route oral. As to conditions: in vivo.

Structures are written as SMILES.

As to `COc1ccc2cc(C(C)c3nc4s/c(=C\c5ccc(Br)s5)c(=O)n4n3)ccc2c1` (stereo not given), the Activity entry was “Non-toxic” with Mus musculus [1]; 51.2% in the series on Mus musculus [2]; “Non-toxic” in the series on Mus musculus [4]; 51.4% in the series with Mus musculus [6]; “Non-toxic” in the series on Mus musculus [14]. The Ratio IC50 in series [3] came out at 2.3. The MPE in the series with Mus musculus [5] was determined as 29%; in the series on Mus musculus [10] it was 41.1%; with Mus musculus [11], 38%; with Mus musculus [12] it was 24.4%. Moreover, the IC50 in series [7] was 17.3 µM; in series [8], 39.8 µM. Moreover, the UI in the series on Mus musculus [9] was found to be 2.6; in the series with Mus musculus [13] it was 1.8.

For the molecule `COc1ccc2cc(C(C)c3nc4s/c(=C\c5ccc(C)s5)c(=O)n4n3)ccc2c1` (stereo not given), the Activity entry in the series on Mus musculus [1] is “Non-toxic”; with Mus musculus [2], 31.1%; in the series on Mus musculus [4], “Non-toxic”; in the series on Mus musculus [6], 36.7%; in the series on Mus musculus [14] it was “Non-toxic”. Further, the Ratio IC50 in [3] is above 4.87. The MPE in the series with Mus musculus [5] is given as 34.9%; in the series on Mus musculus [10], 43.5%; in the series on Mus musculus [11] it was 32.8%; in the series on Mus musculus [12], 36%. The IC50 in series [7] is 20.5 µM; in series [8] it was above 100 µM. Also, the UI with Mus musculus [9] is given as 2.3; in the series with Mus musculus [13] it was 1.8.

In the case of `COc1ccc2cc(C(C)c3nc4s/c(=C\c5cccc6ccccc56)c(=O)n4n3)ccc2c1` (stereo not given), the Activity result in the series on Mus musculus [1] is “Non-toxic”; with Mus musculus [2], 39.6%; with Mus musculus [4] it was “Non-toxic”; in the series with Mus musculus [6] it was 43%; in the series on Mus musculus [14], “Non-toxic”. In addition, in series [3], the Ratio IC50 turned out to be 1.25. The MPE in the series with Mus musculus [5] is 39.7%; in the series on Mus musculus [10], 53.8%; in the series on Mus musculus [11], 51.9%; with Mus musculus [12] it was 36.8%. Moreover, the results for the IC50 in [7] and in series [8] were 68.2 µM and 85.6 µM, respectively. Moreover, the UI in the series with Mus musculus [9] worked out at 2.2; in the series on Mus musculus [13] it was 2.6.

On to `COc1ccc2cc(C(C)c3nc4s/c(=C\C(C)=C\c5ccccc5)c(=O)n4n3)ccc2c1` (stereo not given), for which the Activity result with Mus musculus [1] is “Non-toxic”; in the series with Mus musculus [2], 30.7%; in the series on Mus musculus [4], “Non-toxic”; in the series on Mus musculus [6], 35.4%; with Mus musculus [14] it was “Non-toxic”. In addition, in series [3], the Ratio IC50 is 2.63. Further, the MPE with Mus musculus [5] is given as 28.7%; with Mus musculus [10] it was 41.1%; in the series with Mus musculus [11], 45.3%; in the series with Mus musculus [12], 25.9%. For the same molecule, the figures for the IC50 in series [7] and in series [8] were 24.6 µM and 64.7 µM, respectively. Besides, the figures for the UI with Mus musculus [9] and in the series with Mus musculus [13] were 2.3 and 2, respectively.

As to `COc1ccc2c(c1)c(CC(=O)O)c(C)n2C(=O)c1ccc(Cl)cc1` [INDOMETHACIN], the Activity in the series with Mus musculus [2] is 50.9%; with Mus musculus [6] it was 46.8%. Besides, the MPE worked out at 35.2% with Mus musculus [5], 46.2% with Mus musculus [10], 46.9% in the series on Mus musculus [11] and 40.5% with Mus musculus [12]. Further, the mortality at 12 h in [15] stood at 71%. In addition, the UI in the series on Mus musculus [9] stood at 5.1; in the series with Mus musculus [13], 4.

For orientation: IC50 means the point on the concentration scale where inhibition reaches its midpoint. In general, mortality refers to the percentage killed.
